Compound `O=S(=O)(Cc1ccc(C(O)(C(F)(F)F)C(F)(F)F)cc1)c1ccc2ccccc2c1` [Example 3, 1,1,1,3,3,3-Hexafluoro-2-{4-[(2-naphthylsulfonyl)methyl]phenyl}propan-2-ol] yielded a melting point of 148 °C.

For `Cc1ccc(CC(c2ccc(C(O)(C(F)(F)F)C(F)(F)F)cc2)S(=O)(=O)c2ccccc2)cc1` (stereo not drawn) [Example 17, 1,1,1,3,3,3-Hexafluoro-2-{4-[2-(4-methylphenyl)-1-(phenylsulfonyl)ethyl]phenyl}propan-2-ol], the melting point is 159 °C. Take `O=S(=O)(Cc1ccc(C(O)(C(F)(F)F)C(F)(F)F)cc1)c1ccccc1Br` [Example 5, 2-(4-{[(2-Bromophenyl)sulfonyl]methyl}phenyl)-1,1,1,3,3,3-hexafluoropropan-2-ol]: the melting point was determined as 124 °C. Compound `C=CCC(c1ccc(C(O)(C(F)(F)F)C(F)(F)F)cc1)S(=O)(=O)c1ccccc1` (stereo not drawn) [Example 14, 1,1,1,3,3,3-Hexafluoro-2-{4-[1-(phenylsulfonyl)but-3-enyl]phenyl}propan-2-ol] showed a melting point of 148 °C. As to `O=S(=O)(Cc1ccc(C(O)(C(F)(F)F)C(F)(F)F)cc1)c1ccc(Cl)cc1` [Example 7, 2-(4-{[(4-Chlorophenyl)sulfonyl]methyl}phenyl)-1,1,1,3,3,3-hexafluoropropan-2-ol], the melting point was 112 °C. Take `Cc1ccc(S(=O)(=O)Cc2ccc(C(O)(C(F)(F)F)C(F)(F)F)cc2)cc1` [Example 2, 1,1,1,3,3,3-Hexafluoro-2-(4-{[(4-methylphenyl)sulfonyl]methyl}phenyl)propan-2-ol]: the melting point worked out at 129 °C. As for `CC(C)(c1ccc(C(O)(C(F)(F)F)C(F)(F)F)cc1)S(=O)(=O)c1ccccc1` [Example 19, 1,1,1,3,3,3-Hexafluoro-2-{4-[1-methyl-1-(phenylsulfonyl)ethyl]phenyl}propan-2-ol], the figure is 185 °C; as for `O=S(=O)(c1ccccc1)C(CC(F)(F)F)c1ccc(C(O)(C(F)(F)F)C(F)(F)F)cc1` (stereo not drawn) [Example 16, 1,1,1,3,3,3-Hexafluoro-2-{4-[3,3,3-trifluoro-1-(phenylsulfonyl)propyl]phenyl}propan-2-ol], 151 °C. For the compound `O=S(=O)(Cc1ccc(C(O)(C(F)(F)F)C(F)(F)F)cc1)c1cccc(Br)c1` [Example 6, 2-(4-{[(3-Bromophenyl)sulfonyl]methyl}phenyl)-1,1,1,3,3,3-hexafluoropropan-2-ol], the melting point came to 121 °C. The compound `O=S(=O)(c1ccccc1)C(Cc1ccccc1)c1ccc(C(O)(C(F)(F)F)C(F)(F)F)cc1` (stereo not drawn) [Example 9, 1,1,1,3,3,3-Hexafluoro-2-{4-[2-phenyl-1-(phenylsulfonyl)ethyl]phenyl}propan-2-ol] displayed a melting point of 157 °C. For `CCC(c1ccc(C(O)(C(F)(F)F)C(F)(F)F)cc1)S(=O)(=O)c1ccccc1` (stereo not drawn) [Example 15, 1,1,1,3,3,3-Hexafluoro-2-{4-[1-(phenylsulfonyl)propyl]phenyl}propan-2-ol], the melting point amounted to 148 °C. For `CC(C)(C)C(=O)C(c1ccc(C(O)(C(F)(F)F)C(F)(F)F)cc1)S(=O)(=O)c1ccccc1` (stereo not drawn) [Example 11, 3,3-Dimethyl-1-(phenylsulfonyl)-1-{4-[2,2,2-trifluoro-1-hydroxy-1-(trifluoromethyl) -ethyl]phenyl}butan-2-one] the value was 172 °C; for `O=S(=O)(Cc1ccc(C(O)(C(F)(F)F)C(F)(F)F)cc1)c1ccc(Br)cc1` [Example 4, 2-(4-{[(4-Bromophenyl)sulfonyl]methyl}phenyl)-1,1,1,3,3,3-hexafluoropropan-2-ol], 126 °C. As for `CC(c1ccc(C(O)(C(F)(F)F)C(F)(F)F)cc1)S(=O)(=O)c1ccccc1` (stereo not drawn) [Example 8, 1,1,1,3,3,3-Hexafluoro-2-{4-[1-(phenylsulfonyl)ethyl]phenyl}propan-2-ol], the figure is 136 °C; as for `O=S(=O)(c1ccccc1)C(Cc1ccc(-c2ccccc2)cc1)c1ccc(C(O)(C(F)(F)F)C(F)(F)F)cc1` (stereo not drawn) [Example 18, 2-{4-[2-(1,1′-Biphenyl-4-yl)-1-(phenylsulfonyl)ethyl]phenyl}-1,1,1,3,3,3-hexafluoropropan-2-ol], 192 °C.

Usually melting point stands for the temperature, or range, at which the solid turns liquid.

For the origin of these results see patent publication US6822120B2, “Sulfone liver X-receptor modulators” (Pharmacia Corporation, priority 2002, dated 2004).
